The test system of series [1] is HL-60 promyelocytic leukemia cells. Put plainly: Cytotoxicity in HL-60 cells. The text has this:
(§1) We hypothesized that modifications designed to enhance electrostatic interactions between the peptide and C/EBPβ would increase potency. A panel of 46 rationally-designed peptides probing the molecular packing of non-leucine amino acids of the peptide antagonist with that of the C/EBPβ bZIP domain were synthesized and screened for cytotoxic activity.

The nature of series [2]: Cytotoxicity in HL-60 cells.
Source text: as §1

Series [3] deals with C/EBPβ (plate-bound, competitive ELISA). Put plainly: ELISA: 3.6 ng plate-bound C/EBPβ, ATF5 in solution. For orientation: ELISA stands for enzyme-linked immunosorbent assay.
Sequence of C/EBPβ (plate-bound, competitive ELISA) (P17676 whole entry): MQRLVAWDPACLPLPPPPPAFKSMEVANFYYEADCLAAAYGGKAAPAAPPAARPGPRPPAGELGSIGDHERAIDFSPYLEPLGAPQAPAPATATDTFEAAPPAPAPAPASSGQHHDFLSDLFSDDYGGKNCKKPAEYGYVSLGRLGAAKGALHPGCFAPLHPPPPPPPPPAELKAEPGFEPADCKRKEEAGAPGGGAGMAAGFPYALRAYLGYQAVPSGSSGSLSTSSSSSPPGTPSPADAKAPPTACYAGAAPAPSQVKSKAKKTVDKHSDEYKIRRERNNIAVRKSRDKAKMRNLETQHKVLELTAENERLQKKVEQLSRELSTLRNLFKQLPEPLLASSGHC
For another series, the target named is C/EBPβ (Homo sapiens, UniProt P17676). Put plainly: ELISA, ATF5 binding to plate-bound C/EBPβ. To be noted: 3.6 ng C/EBPβ plate-bound.
Sequence of C/EBPβ (P17676 whole entry, species assumed): as the sequence (P17676 whole entry) above

Where no end group is shown, it is not given here.

By EC50 is commonly meant the concentration giving half of the maximal effect. The molecule “22-amino acid section of native ATF5 bZIP domain, LEGECQGLEARNRELKERAESV, and a 16-amino acid penetratin domain [precursor peptide]” registered a 50% effective concentration (EC50) in series [1] of 17.4 ± 0.5 µM.

As for “RQIKIWFQNRRMKWKKLEGRAQGLRAELRELEERAEAV [“winner” peptide]”, in series [2], the midpoint of the response, the EC50, lay at 5.5 ± 0.5 µM. In series [1] (HL-60 cytotoxicity EC50), the “increase in potency vs. the parent peptide” value came out at 3.2 fold.

For orientation: Kd means the constant that tells how readily two partners part at equilibrium. Read a high Kd as a looser complex. recombinant ATF5: in series [3], the dissociation constant (Kd) was found to be 0.001 µM.

B1: ATF5: recombinant ATF5, activating transcription factor 5, binding partner of C/EBPβ (protein)
chain: MSLLATLGLELDRALLPASGLGWLVDYGKLPPAPAPLAPYEVLGGALEGGLPVGGEPLAGDGFSDWMTERVDFTALLPLEPPLPPGTLPQPSPTPPDLEAMASLLKKELEQMEDFFLDAPPLPPPSPPPLPPPPLPPAPSLPLSLPSFDLPQPPVLDTLDLLAIYCRNEAGQEEVGMPPLPPPQQPPPPSPPQPSRLAPYPHPATTRGDRKQKKRDQNKSAALRYRQRKRAEGEALEGECQGLEARNRELKERAESVEREIQYVKDLLIEVYKARSQRTRSC
Regarding B1, the “Kd of ATF5 association with C/EBPβ” value with C/EBPβ was found to be 0.001 µM.

The values are drawn from US20230218717A1, “Administration of CEBP-Beta Antagonist and Methods of Use” (Sapience Therapeutics, Inc., priority 2020, published 2023).
